Values joined by “and” are separate entries in the source; they are usually repeats but may differ in a detail not shown here. Identical values can stand only once. Like-named read-outs stand apart in the source and are kept apart here.
Tests used:
[1] = system: de novo lipogenesis (DNL); assay: DNL from [2-14C]acetic acid in HepaRG cells; assay type: cell-based, human; conditions: 4 days, vs control
[2] = system: stearoyl-CoA desaturase 1 (hSCD1); assay: RT-qPCR hSCD1 mRNA in HepaRG cells; assay type: cell-based, human; conditions: 4 days, vs control
Protocol: (§1) Total RNA was extracted with the Nucleospin RNA isolation system purchased from Macherey-Nagel (Düren, Germany), which included a DNase treatment step. Quantification of isolated RNAs was assessed using a Nanodrop 1000 (Thermo Fisher Scientific, Waltham, MA). RNAs were reverse-transcribed into cDNAs using the High-Capacity cDNA Reverse Transcription Kit purchased from Applied Biosystems (Woolston, UK). Gene expression was assessed by real-time quantitative PCR analysis (RT-qPCR) using SYBR Green PCR Master Mix (Applied Biosystems) and a 384-well QuantStudio™ 7 Flex Real-Time PCR System (Thermo Fisher Scientific). Sequences of the primers used to measure gene expression are presented in Supplementary Table 3. Expression of GAPDH was chosen as reference and the 2^−ΔΔCt calculation method was used to express the relative expression of each selected gene.

IRE1α = assay: Western blot total IRE1α in HepaRG cells; assay type: cell-based, human
Protocol: Cells were lysed in ice-cold CelLytic M buffer (C2978; Sigma Aldrich) containing phosphatase and protease inhibitors from Roche Applied Science (Penzberg, Germany). Protein concentration was determined using the Pierce BCA Protein Assay Kit (Thermo Fisher Scientific) and equal amounts of protein were diluted with NuPAGE LDS Sample Buffer (Thermo Fisher Scientific). Samples (ca. 25 μg of proteins) were then separated by SDS-PAGE using NuPAGE 4–12% Bis-Tris gels (Thermo Fisher Scientific). Proteins were transferred to PVDF membranes (BioRad) and Ponceau S staining was used to confirm equal loading and transfer. Membranes were blocked in 7.5% milk in TBST (10 mM Tris–HCl, 100 mM NaCl, 0.02% Tween 20) for 1 h at room temperature and incubated overnight at 4 °C with antibodies against phospho-IRE1α (Ser724) (Abcam, ab124945), IRE1α (Cell Signaling, 3294), or HSC70 (Santa Cruz, sc-7298), whose dilutions were 1:1000. […] Protein content was quantified by densitometry with ImageJ software (National Institutes of Health, Bethesda, MD).

ATP citrate lyase (ACLY) = assay: RT-qPCR ACLY mRNA in HepaRG cells; assay type: cell-based, human; conditions: 4 days, vs control
Protocol: as §1

apoB secretion = assay: apoB level in culture medium (ELISA), HepaRG cells; assay type: cell-based, human; conditions: 4 days, culture medium, vs control
[3] = system: acetyl-CoA carboxylase alpha (ACACA); assay: RT-qPCR ACACA mRNA in HepaRG cells; assay type: cell-based, human; conditions: 4 days, vs control
Protocol: as §1

[4] = treated patients, ref Schulz M et al., Crit Care 2012 ;16(4):R136, cited from earlier work
HepaRG cells = assay: Cellular ATP level (CellTiter-Glo) in HepaRG cells; assay type: cell-based, human; conditions: 4 days, vs controls
Protocol: Cellular ATP level was measured using the CellTiter-Glo® Luminescent Cell Viability assay purchased from Promega (Charbonnières, France), according to the manufacturer’s instructions. Briefly, control and treated HepaRG cells were first washed with warm PBS and kept for 30 min at room temperature in phenol red-free William’s E medium. Cells were next incubated with the CellTiter-Glo® reagent for 10 min at room temperature. Cells were then transferred in opaque-walled multiwell plates and the luminescent signal was quantified using a POLARstar Omega microplate reader (BMG Labtech, Ortenberg, Germany). Results were expressed in comparison to control cells.

[5] = system: isolated mouse liver mitochondria; assay: Oxygen consumption of isolated mouse liver mitochondria; assay type: biochemical; conditions: state 3
Protocol: For all aforementioned substrates, measurements were performed in parallel without or with 2 μM rotenone in order to calculate (EC20), as previously mentioned. Oxygen consumption was measured in real-time for 60 min at 37 °C in 96-well plates using a spectrofluorometer (Tecan Infinite® 200; λExcitation 380 nm; λEmission 650 nm). The slope of fluorescence increase, corresponding to the rate of oxygen consumption, was used for calculations. EC20 was thus assessed as previously described by compiling the percentage of inhibition obtained from 4 to 12 experiments.

| EC20 for inhibition of O2 consumption, palmitoyl-coenzyme A + L-carnitine [5] | SMILES | Effect on DNL [1] | hSCD1 mRNA level [2] | Protein level of total IRE1α (IRE1α) | ACLY mRNA level (ATP citrate lyase (ACLY)) | Effect on apoB secretion (apoB secretion) | ACACA mRNA level [3] | Therapeutic blood (or plasma) concentration in patients ([4]; listed as Indomethacin (INDO)) | Loss of cellular ATP relative to the maximum concentration selected for the study (HepaRG cells) | EC20 for inhibition of O2 consumption, glutamate/malate [5] | EC20 for inhibition of O2 consumption, octanoyl-L-carnitine [5] | EC20 for inhibition of O2 consumption, palmitoyl-L-carnitine [5] | Therapeutic blood (or plasma) concentration in patients ([4]; listed as Rifampicin (RIF)) |
| --- | --- | --- | --- | --- | --- | --- | --- | --- | --- | --- | --- | --- | --- |
| – | COc1ccc2c(c1)c(CC(=O)O)c(C)n2C(=O)c1ccc(Cl)cc1 [INDO, indomethacin] | increased DNL | also increased hSCD1 mRNA level | increased protein level | augmented mRNA abundance | reduced the secretion | augmented mRNA abundance | 0.3 - 1 mg/L and 0.83 - 2.8 µM | – | – | – | – | – |
| 20 ± 4 µM | CO[C@H]1/C=C/O[C@@]2(C)Oc3c(C)c(O)c4c(O)c(c(/C=N/N5CCN(C)CC5)c(O)c4c3C2=O)NC(=O)/C(C)=C\C=C\[C@H](C)[C@H](O)[C@@H](C)[C@@H](O)[C@@H](C)[C@H](OC(C)=O)[C@@H]1C [RIF, rifampicin] | curb this metabolic pathway | – | increased protein level | – | reduced the secretion | – | – | 300 µM (loss of cellular ATP above 30% of the controls for higher concentrations, as shown in Supp. fig 1) | 34 ± 12 µM | 17 ± 2 µM | 16 ± 3 µM | 0.1 - 10 mg/L and 0.12 - 12.2 µM |
